Experimental data taken from patent US4937360A, “N-substituted amide derivatives useful for treating liver diseases” (Taisho Pharmaceutical Co., Ltd., priority 1988, dated 1990).

Columns and labels:
[1] = test system: acute liver injury induced by D-galactosamine; experiment: Effect on acute liver injury induced by D-galactosamine (serum GPT); assay type: in vivo, male Wister strain rats; conditions: oral, rats, 18 hours; for GPT: mean ± S.E.; for Inhibition %: serum GPT vs control
Experimental: (§1) Effect on acute liver injury induced by D-galactosamine Six male Wister strain rats (eight weeks old, about 200 g of body weight) per group were used for the test. Suspensions of the compound, obtained in Example 1, in 5% gum arabic solution in various concentrations were prepared for test drugs. A 5% gum arabic solution was used as a control. The test drugs and a 5% gum arabic solution were each administered orally in an amount of 5 ml/kg of body weight to different animals. After standing for 18 hours, the animals were anesthetized with ether, the blood was drawn and centrifuged for measuring the serum GPT value. Malotilate served as a comparative test drug.

[2] = test system: acute liver injury induced by carbon tetrachloride; experiment: Effect on acute liver injury induced by carbon tetrachloride (serum GPT); assay type: in vivo, male ICR strain mice; conditions: oral, mice, 18 hours; for GPT: mean ± S.E.; for Inhibition %: serum GPT vs control
Experimental: as §1, with “by carbon tetrachloride Ten” for “by D-galactosamine Six”, “male ICR” for “male Wister”, “strain mice (six” for “strain rats (eight”, “about 30” for “about 200”, “of 10” for “of 5”

Structure (SMILES)	GPT ([1]; 30 mg/kg)	Inhibition % ([1]; 30 mg/kg)	GPT ([1]; 100 mg/kg)	Inhibition % ([1]; 100 mg/kg)	GPT ([1]; 300 mg/kg)	Inhibition % ([1]; 300 mg/kg)	GPT ([2]; 10 mg/kg)	Inhibition % ([2]; 10 mg/kg)	GPT ([2]; 30 mg/kg)	Inhibition % ([2]; 30 mg/kg)	GPT ([2]; 100 mg/kg)	Inhibition % ([2]; 100 mg/kg)
CC(=O)N(C)CC(=O)c1ccc2c(c1)OCO2 [A, N-methyl-N-(3,4-methylenedioxyphenacyl)acetamide]	15972 ± 2810 IU/1	22.5%	7440 ± 757 IU/1	64.1%	4415 ± 1539 IU/1	78.8%	2634 ± 380 IU/1	56%	636 ± 245 IU/1	89%	39 ± 3 IU/1	100%
CC(C)OC(=O)C(C(=O)OC(C)C)=C1SC=CS1 [B, Malotilate]	19240 ± 1183 IU/1	6.4%	11190 ± 777 IU/1	45.6%	15557 ± 1669 IU/1	24.6%	4291 ± 1012 IU/1	28%	1778 ± 310 IU/1	71%	148 ± 40 IU/1	98%
